System: endotoxin
Type: cell-based

Question: With `COc1cc(/C=C/C(=O)CC(=O)/C=C/c2ccc(O)c(OC)c2)ccc1O` [Curcumin] as the molecule, how does the “Inhibition of endotoxin (in words)” value read?
Answer: not restrained
